Patent publication US12252488B2 (Nimbus Saturn, Inc., priority 2021, dated 2025)

Molecular target: T1, HPK1 (Homo sapiens, UniProt Q92918)
T1 construct: purchased Invitrogen
Test: HPK1 biochemical enzyme assay (microfluidic mobility shift assay)
Settings: 1000 uM (1 mM) ATP; Caliper mobility shift; 1.5 nM HPK1; 30 min preincubation; read-out: HPK1 1000UMATP caliper IC50
Procedure: Example 33. HPK1 Biochemical Enzyme Assay
HPK1 biochemical enzyme assay: HPK1 enzyme inhibition was measured using a microfluidic mobility shift assay. Reactions were performed in a 384-well plate, containing 1.5 nM HPK1 (Invitrogen), in assay buffer (Carna Biosciences; pH 7.4). Test compounds were titrated in ten point curves (top final assay concentration 3 μM), and preincubated with enzyme/substrate mix for 30 min prior to initiation of the reaction by addition of ATP (1 mM final concentration) and substrate (1 μM final concentration; Carna Biosciences) diluted in assay buffer supplemented by MgCl2 (final assay concentration of 5 mM). Following 60 min incubation at RT, the reaction was terminated by addition of 60 μl/well termination buffer (Carna Biosciences) and signal determination using a Caliper EZ Reader (Perkin Elmer, UK).
The compound numbers correspond to the compound numbers in Table 1. Compounds having an activity designated as “A” provided an IC50≤100 nM; compounds having an activity designated as “B” provided an IC50>100 nM and ≤1,000 nM; compounds having an activity designated as “C” provided an IC50>1,000 nM.

T1 sequence (Q92918 whole entry): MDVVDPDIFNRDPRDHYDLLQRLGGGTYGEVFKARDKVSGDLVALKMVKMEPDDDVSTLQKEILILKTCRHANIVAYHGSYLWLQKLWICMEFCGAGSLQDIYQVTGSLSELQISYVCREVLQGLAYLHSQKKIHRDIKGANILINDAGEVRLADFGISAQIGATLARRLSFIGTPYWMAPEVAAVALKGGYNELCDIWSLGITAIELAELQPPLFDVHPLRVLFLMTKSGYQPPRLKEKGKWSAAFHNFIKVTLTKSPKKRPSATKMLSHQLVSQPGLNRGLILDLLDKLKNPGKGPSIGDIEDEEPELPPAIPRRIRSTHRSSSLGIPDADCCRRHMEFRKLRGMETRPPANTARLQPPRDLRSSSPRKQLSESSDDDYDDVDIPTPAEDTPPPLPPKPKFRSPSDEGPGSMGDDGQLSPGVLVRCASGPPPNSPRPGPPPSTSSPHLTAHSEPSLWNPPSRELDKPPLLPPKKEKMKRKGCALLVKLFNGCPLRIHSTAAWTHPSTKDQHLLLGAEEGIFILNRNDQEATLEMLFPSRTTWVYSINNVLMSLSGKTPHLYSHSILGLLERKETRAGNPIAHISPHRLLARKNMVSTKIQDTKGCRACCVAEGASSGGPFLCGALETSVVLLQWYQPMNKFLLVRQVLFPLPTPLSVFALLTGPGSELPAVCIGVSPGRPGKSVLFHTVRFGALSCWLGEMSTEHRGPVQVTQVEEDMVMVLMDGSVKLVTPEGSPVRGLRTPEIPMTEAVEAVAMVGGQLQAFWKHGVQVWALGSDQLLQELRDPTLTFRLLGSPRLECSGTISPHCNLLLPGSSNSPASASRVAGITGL

IC50 | Structure (SMILES)
≤ 100 nM | O=C(Nc1ccc(-c2cc(Nc3ccc(N4CCC(O)CC4)cn3)c3c(=O)[nH]ccc3n2)c(F)c1)[C@@H]1C[C@H]2CC[C@@H]1C2 (racemic) [I-266, (1R,2R,4S)-N-[3-fluoro-4-[4-[[5-(4-hydroxy-1-piperidyl)-2-pyridyl]amino]-5-oxo-6H-1,6-naphthyridin-2-yl]phenyl] norbornane-2-carboxamide]
≤ 100 nM | O=C(Nc1ccc(-c2cc(Nc3ccc(N4CCC(O)CC4)cn3)c3c(=O)[nH]ccc3n2)c(F)c1)[C@H]1C[C@H]2CC[C@@H]1C2 (single isomer, unassigned) [I-261]
≤ 100 nM | O=C(Nc1ccc(-c2cc(Nc3ccc(C4CCOC4)cn3)c3c(=O)[nH]ccc3n2)c(F)c1)C1CCCCC1 (single isomer, unassigned) [I-267, N-[3-fluoro-4-[5-oxo-4-[(5-THF-3-yl-2-pyridyl)amino]-6H-1,6-naphthyridin-2-yl]phenyl] cyclohexane carboxamide]
100 to 1000 nM | O=C(Nc1ccc(-c2cc(Nc3ccc(N4CCC(O)CC4)cn3)c3c(=O)[nH]ccc3n2)c(F)c1)[C@@H]1C[C@H]2CC[C@@H]1C2 (single isomer, unassigned) [I-269]
≤ 100 nM | CC(O)(c1ccc(F)c(-c2cc(Nc3ccc(N4CCC(O)CC4)cn3)c3c(=O)[nH]ccc3n2)c1)C(F)(F)F (single isomer, unassigned) [I-273, 2-(2-fluoro-5-(1,1,1-tifluoro-2-hydroxy-propan-2-yl)phenyl)-4-((5-(4-hydroxy-piperidin-1-yl)pyridin-2-yl)amino)-1,6-naphthyridin-5(6H)-one]
≤ 100 nM | CC(O)(c1ccc(F)c(-c2cc(Nc3ccc(N4CCC(O)CC4)cn3)c3c(=O)[nH]ccc3n2)c1)C(F)(F)F (single isomer, unassigned) [I-274, 2-(2-fluoro-5-(1,1,1-hydroxy-propan-2-yl)phenyl)-4-((5-(4-hydroxy-piperidin-1-y)pyridin-2-yl)amino)-1,6-naphthyridin-5(6H)-one]
≤ 100 nM | O=C(Nc1ccc(-c2cc(Nc3ccc(N4CCC(O)CC4)cn3)c3c(=O)[nH]ccc3n2)c(F)c1)[C@H]1C[C@H]2CC[C@@H]1C2 (single isomer, unassigned) [I-275]
≤ 100 nM | O=C(Nc1ccc(-c2cc(Nc3ccc(N4CCC(O)CC4)cn3)c3c(=O)[nH]ccc3n2)c(F)c1)[C@@H]1C[C@H]2CC[C@@H]1C2 (single isomer, unassigned) [I-277]
≤ 100 nM | CCNC(=O)c1ccc(Nc2cc(-c3c(F)cccc3F)nc3cc[nH]c(=O)c23)cc1 [I-4, 4-[[2-(2,6-difluoro-phenyl)-5-oxo-6H-1,6-naphthyridin-4-yl]amino]-N-ethyl-benzamide]
> 1000 nM | Cc1ccc(F)c(-c2cc(Nc3ccc(N4CCC(O)CC4)cn3)c3c(=O)[nH]ccc3n2)c1 [I-4I]
100 to 1000 nM | O=c1[nH]cc(Br)c2nc(-c3c(F)cccc3F)cc(Nc3ccc(N4CCC(O)CC4)cn3)c12 [I-5, 8-bromo-2-(2,6-difluorophenyl)-4-[[5-(4-hydroxy-1-piperidyl)-2-pyridyl]amino]-6H-1,6-naphthyridin-5-one]
≤ 100 nM | O=c1[nH]ccc2nc(-c3c(F)cccc3F)cc(Nc3ccc(N4CCNCC4)cn3)c12 [I-6, 2-(2,6-difluoro-phenyl)-4-[(5-piperazin-1-yl-2-pyridyl)amino]-6H-1,6-naphthyridin-5-one]
100 to 1000 nM | CCNC(=O)c1ccc(Nc2nc(-c3c(F)cccc3F)cc3cc[nH]c(=O)c23)cc1 [I-7, 4-[[3-(2,6-difluorophenyl)-8-oxo-7H-2,7-naphthyridin-1-yl]amino]-N-ethyl-benzamide]
100 to 1000 nM | O=c1[nH]ccc2cc(-c3c(F)cccc3F)nc(Nc3ccc(N4CCC(O)CC4)cn3)c12 [I-8, 6-(2,6-difluoro-phenyl)-8-[[5-(4-hydroxy-1-piperidyl)-2-pyridyl]amino]-2H-2,7-naphthyridin-1-one]
100 to 1000 nM | CC(C)c1cc(Nc2ccc(N3CCC(O)CC3)cn2)c2c(=O)[nH]ccc2n1 [I-9, 4-[[5-(4-hydroxy-1-piperidyl)-2-pyridyl]amino]-2-isopropyl-6H-1,6-naphthyridin-5-one]
100 to 1000 nM | CCNC(=O)c1ccc(Nc2nc(C(C)C)nc3cc[nH]c(=O)c23)cc1 [I-10, N-ethyl-4-[(2-isopropyl-5-oxo-6H-pyrido[4,3-d]pyrimidin-4-yl)amino]benzamide]
100 to 1000 nM | O=c1[nH]cnc2nc(-c3c(F)cccc3F)cc(Nc3ccc(N4CCC(O)CC4)cn3)c12 [I-11, 7-(2,6-difluorophenyl)-5-[[5-(4-hydroxy-1-piperidyl)-2-pyridyl]amino]-3H-pyrido[2,3-d]pyrimidin-4-one]
100 to 1000 nM | CCNC(=O)c1ccc(Nc2nc(-c3c(F)cccc3F)cc3nc[nH]c(=O)c23)cc1 [I-12, 4-[[7-(2,6-difluorophenyl)-4-oxo-3H-pyrido[4,3-d]pyrimidin-5-yl]amino]-N-ethyl-benzamide]
100 to 1000 nM | O=c1[nH]cnc2cc(-c3c(F)cccc3F)nc(Nc3ccc(N4CCC(O)CC4)cn3)c12 [I-13, 7-(2,6-difluoro-phenyl)-5-[[5-(4-hydroxy-1-piperidyl)-2-pyridyl]amino]-3H-pyrido[4,3-d] pyrimidin-4-one]
≤ 100 nM | CCNC(=O)c1ccc(Nc2cc(-c3c(F)cccc3F)nc3nc[nH]c(=O)c23)cc1 [I-14, 4-[[7-(2,6-difluoro-phenyl)-4-oxo-3H-pyrido[2,3-d]pyrimidin-5-yl]amino]-N-ethyl-benzamide]
100 to 1000 nM | CC(O)c1c[nH]c(=O)c2c(Nc3ccc(N4CCC(O)CC4)cn3)cc(-c3c(F)cccc3F)nc12 (stereo not shown) [I-15, 2-(2,6-difluorophenyl)-8-(1-hydroxyethyl)-4-[[5-(4-hydroxy-1-piperidyl)-2-pyridyl]amino]-6H-1,6-naphthyridin-5-one]
100 to 1000 nM | CC(C)(O)c1c[nH]c(=O)c2c(Nc3ccc(N4CCC(O)CC4)cn3)cc(-c3c(F)cccc3F)nc12 [I-16, 2-(2,6-difluorophenyl)-8-(1-hydroxy-1-methyl-ethyl)-4-[[5-(4-hydroxy-1-piperidyl)-2-pyridyl]amino]-6H-1,6-naphthyridin-5-one]
100 to 1000 nM | O=c1[nH]ccc2nc(C3CC3)cc(Nc3ccc(N4CCC(O)CC4)cn3)c12 [I-17, 2-cyclopropyl-4-[[5-(4-hydroxy-1-piperidyl)-2-pyridyl]amino]-6H-1,6-naphthyridin-5-one]
> 1000 nM | CS(=O)(=O)c1ccc(Nc2cc(-c3c(F)cccc3F)nc3cc[nH]c(=O)c23)nc1 [I-18, 2-(2,6-difluoro-phenyl)-4-[(5-methyl-sulfonyl-2-pyridyl)amino]-6H-1,6-naphthyridin-5-one]
100 to 1000 nM | O=c1[nH]ccc2nc(C3CCCCC3)cc(Nc3ccc(N4CCC(O)CC4)cn3)c12 [I-19, 2-cyclohexyl-4-[[5-(4-hydroxy-1-piperidyl)-2-pyridyl]amino]-6H-1,6-naphthyridin-5-one]
100 to 1000 nM | O=c1[nH]ccc2nc(C3CCCC3)cc(Nc3ccc(N4CCC(O)CC4)cn3)c12 [I-20, 2-cyclopentyl-4-[[5-(4-hydroxy-1-piperidyl)-2-pyridyl]amino]-6H-1,6-naphthyridin-5-one]
100 to 1000 nM | CC(C)c1cc(Nc2ccc(N3CCNCC3)cn2)c2c(=O)[nH]ccc2n1 [I-21, 2-isopropyl-4-[(5-piperazin-1-yl-2-pyridyl)amino]-6H-1,6-naphthyridin-5-one]
≤ 100 nM | CC(C)c1cc(Nc2ccc(N3CCOCC3)cn2)c2c(=O)[nH]ccc2n1 [I-22, 2-isopropyl-4-[(5-morpholino-2-pyridyl)amino]-6H-1,6-naphthyridin-5-one]
